Values quoted from earlier work in PMC2866172 (Journal of medicinal chemistry, 2010).

Tested on: MTB enoyl-ACP reductase InhA
Settings: on MTB enoyl-ACP reductase InhA; cited from earlier work

NC(=O)C1=CN([C@@H]2O[C@H](COP(=O)(O)OP(=O)(O)OC[C@H]3O[C@@H](n4cnc5c(N)ncnc54)[C@H](O)[C@@H]3O)[C@@H](O)[C@H]2O)C=C[C@@H]1C(=O)c1ccncc1 [INH-NAD adduct]
Residence time: 60 min
